Data: US20110039289A1, “FLUOROGENIC PEPTIDES AND THEIR METHOD OF PRODUCTION” (priority 2008, published 2011)

How the values were obtained:
[1] = Fluorescence lifetime by time correlated single photon counting; conditions: 2-aminoacridone attached directly to the α-carboxylic acid group
Protocol: The fluorescence lifetimes of the synthesised peptides recorded above were measured by time correlated single photon counting. Peptides were dissolved in aqueous buffer solutions and excited at 405 nm using a pulsed solid state laser diode (Picoquant LDH-405). Fluorescent emission was filtered through a narrow bandpass interference filter (480/20 nm) and single photons were detected by a photomultiplier tube detector (Hamamatsu R7400P) and counted using a fast timing board with histogramming memory (Ortec 9353).

caspase 3 enzyme = target: T1, caspase 3 enzyme (Homo sapiens, UniProt P42574); experiment: Cleavage of fluorogenic peptides by caspase 3 (Example 3, FIG. 1); format: biochemical; conditions: 1 mM Zn2+
T1 sequence (P42574 29-175 limits assumed): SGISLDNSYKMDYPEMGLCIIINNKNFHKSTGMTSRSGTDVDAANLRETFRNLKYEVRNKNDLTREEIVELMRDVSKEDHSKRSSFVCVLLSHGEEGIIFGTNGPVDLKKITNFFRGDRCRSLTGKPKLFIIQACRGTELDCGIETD
T1 sequence (P42574 176-277 limits assumed): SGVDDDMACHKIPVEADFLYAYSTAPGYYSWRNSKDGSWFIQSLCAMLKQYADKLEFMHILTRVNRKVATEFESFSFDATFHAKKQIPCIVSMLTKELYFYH
Excerpt: Caspase 3 cleaves WSDEVD-(2aa2) and WSDEVD-(2aa6) at the second aspartic acid residue.
PT14 peptide is WSDEVD-PT14, a conventionally labeled peptide, where PT14 is the Puretime 14 moiety. PT14 peptide is also known as peptide 10, but is not made in accordance with the method of the present invention. Puretime 14 is available from AssayMetrics Limited, Cardiff, UK.

| effect on the action of caspase 3 enzyme (caspase 3 enzyme) | Compound | fluorescence lifetime of adducts of 2-aminoacridone [1] [nanoseconds] |
| --- | --- | --- |
| – | CC(=O)N[C@@H](C)C(=O)Nc1ccc2[nH]c3ccccc3c(=O)c2c1 | 18.1 |
| – | CC(=O)N[C@@H](Cc1c[nH]c2ccccc12)C(=O)Nc1ccc2[nH]c3ccccc3c(=O)c2c1 | 3.0 |
| – | CC(=O)N[C@@H](Cc1ccc(O)cc1)C(=O)Nc1ccc2[nH]c3ccccc3c(=O)c2c1 | 9.4 |
| inhibited the action of the enzyme | zinc ions [reference compound] | – |
